This passage reports Activity and Km results from ChEMBL document CHEMBL2074274, “Transport of quinolone antibacterial drugs by human P-glycoprotein expressed in a kidney epithelial cell line, LLC-PK1” (J Pharmacol Exp Ther, 1997).

Format in all cases: functional, cell-based
The target in data set [1] is T1, ATP-dependent translocase ABCB1 (Homo sapiens, UniProt P08183). The data set is described as follows: TP_TRANSPORTER: inhibition of Levofloxacin transepithelial transport (basal to apical) (Levofloxacin: 100 uM, PAH: 2500 uM) in MDR1-expressing LLC-PK1 cells. As to conditions: pig, llc-pk1, 2500 µM.
T1 sequence (P08183 whole entry): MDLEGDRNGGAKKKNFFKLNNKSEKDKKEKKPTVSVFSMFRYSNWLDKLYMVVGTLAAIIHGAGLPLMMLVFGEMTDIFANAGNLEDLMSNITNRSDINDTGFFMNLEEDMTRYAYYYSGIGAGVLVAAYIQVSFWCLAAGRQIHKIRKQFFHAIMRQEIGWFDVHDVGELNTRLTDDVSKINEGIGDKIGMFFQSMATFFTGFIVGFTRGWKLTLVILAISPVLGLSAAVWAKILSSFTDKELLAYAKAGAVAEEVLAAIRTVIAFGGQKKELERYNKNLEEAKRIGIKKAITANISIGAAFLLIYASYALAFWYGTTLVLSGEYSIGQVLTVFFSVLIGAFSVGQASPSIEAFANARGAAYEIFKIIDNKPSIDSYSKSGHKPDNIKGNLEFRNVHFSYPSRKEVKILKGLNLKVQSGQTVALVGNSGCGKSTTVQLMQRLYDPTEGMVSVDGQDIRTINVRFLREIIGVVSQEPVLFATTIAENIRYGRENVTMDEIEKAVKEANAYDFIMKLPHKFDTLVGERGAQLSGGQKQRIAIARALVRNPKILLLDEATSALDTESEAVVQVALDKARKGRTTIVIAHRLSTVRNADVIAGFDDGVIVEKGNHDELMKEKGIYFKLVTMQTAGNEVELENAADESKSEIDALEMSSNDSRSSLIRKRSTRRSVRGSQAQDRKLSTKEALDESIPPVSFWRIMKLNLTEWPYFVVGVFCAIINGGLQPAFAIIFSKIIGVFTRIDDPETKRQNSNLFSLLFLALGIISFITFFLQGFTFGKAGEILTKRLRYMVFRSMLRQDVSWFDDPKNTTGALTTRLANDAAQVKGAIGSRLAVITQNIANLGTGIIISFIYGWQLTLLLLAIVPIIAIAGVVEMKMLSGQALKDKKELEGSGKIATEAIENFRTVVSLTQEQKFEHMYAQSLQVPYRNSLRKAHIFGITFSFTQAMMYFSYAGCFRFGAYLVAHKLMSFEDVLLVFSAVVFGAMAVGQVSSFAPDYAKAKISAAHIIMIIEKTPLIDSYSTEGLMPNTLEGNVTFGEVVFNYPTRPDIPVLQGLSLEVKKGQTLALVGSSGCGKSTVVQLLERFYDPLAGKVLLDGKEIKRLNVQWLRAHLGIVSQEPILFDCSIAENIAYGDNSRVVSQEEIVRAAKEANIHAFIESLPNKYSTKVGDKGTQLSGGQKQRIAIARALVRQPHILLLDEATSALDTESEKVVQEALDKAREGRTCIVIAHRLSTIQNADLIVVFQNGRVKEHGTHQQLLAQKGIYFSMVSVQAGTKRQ
The target of data set [2] is T1, ATP-dependent translocase ABCB1. The experiment in a line: TP_TRANSPORTER: inhibition of Daunorubicin transepithelial transport (basal to apical) (Daunorubicin: 0.1 uM, Levofloxacin: 3000 uM) in MDR1-expressing LLC-PK1 cells. As to conditions: pig, llc-pk1, 3000 µM.
The target is the same in data set [3]. The data set is described as follows: TP_TRANSPORTER: inhibition of DU-6895a transepithelial transport (basal to apical) (DU-6895a: 100 uM, Levofloxacin: 3000 uM) in MDR1-expressing LLC-PK1 cells. The following applies: pig, llc-pk1, 3000 µM.
Data set [4] has as its system C[C@H]1COc2c(N3CCN(C)CC3)c(F)cc3c(=O)c(C(=O)O)cn1c23. The experiment in a line: TP_TRANSPORTER: transepithelial transport (basal to apical) in MDR1-expressing LLC-PK1 cells.

For `Nc1ccc(C(=O)NCC(=O)O)cc1` [AMINOHIPPURIC ACID], the Activity result in data set [1] is “is not an inhibitor [-]”.

Take `C[C@H]1COc2c(N3CCN(C)CC3)c(F)cc3c(=O)c(C(=O)O)cn1c23.C[C@H]1COc2c(N3CCN(C)CC3)c(F)cc3c(=O)c(C(=O)O)cn1c23.O` [LEVOFLOXACIN]: the Activity result in data set [2] and in data set [3] was “inhibitor [+]” each time.

For orientation: Km means the concentration of substrate that gives half-maximal velocity. “ATP-dependent translocase ABCB1 (Homo sapiens)”: the Km in data set [4] worked out at 3 mM.
